Key:
Format in all cases: in vivo, human
[1] = Treatment-related adverse events (TRAEs), TRESR
Method: Tolerability and safety of camonsertib was evaluated by assessment of AEs, TEAEs, serious adverse events (SAEs), DLTs, concomitant medications and procedures, physical examinations, vital sign measurements, clinical safety laboratory evaluations (hematology, chemistry and urinalysis), ECOG performance status scores and electrocardiograms.
All safety and efficacy endpoints were summarized with descriptive statistics. Safety data were summarized using the safety population, which consisted of all patients who received at least one dose of RP-3500. The DLT rate was based on the DLT-evaluable population, which included those patients in dose-escalation cohorts (M1a and M1b only) receiving ≥80% of planned doses of camonsertib, who completed all required safety evaluations and were observed through the end of cycle 1 or patients who experienced a DLT. Due to the different number of dose levels expected and the exploratory nature of the phase 1 study, anti-tumor activity parameters were primarily based on patients who received ≥1 dose of RP-3500 and had ≥1 post-baseline tumor assessment by RECIST 1.1 and/or GCIG CA-125 or PCWG3 PSA criteria, with an initial dose level of >100 mg d^−1 (dose level predicted to achieve efficacious exposure), as defined in the statistical analysis plan. Additional subgroups based on tumor types or genotypes of interest were based on this efficacy analysis set. […] Patients were, therefore, enrolled in the study and endpoints assessed regardless of sex, gender and race. No formal statistical tests were performed in this study. However, nominal P values (two-sided) were provided for the hypothesis-generating purpose of selected exploratory endpoints, without adjusting for multiplicity. A log-rank test was used in between-group comparisons for the time-to-event endpoints (PFS and DOT), and Fisher’s exact test was used in between-group comparisons for the binary endpoints (CBR, MR, etc.).

p-KAP1 Ser821 = test: PD biomarker IHC in paired pre-/on-treatment tumor biopsies; settings: 33 paired biopsies, doses >100 mg; P < 0.001, paired Wilcoxon test
Method: (§1) Tumor biopsies were collected from patients at baseline and on cycle 2, day 10 between 8 h and 24 h after dosing. […] Thus, p-CHK1 was not assessed owing to limited feasibility. Unstained slides sectioned at 4 μm were labeled for gH2AX Ser139 (clone 20E3, 9718, Cell Signaling Technology, 1:1,000 dilution) and pKAP1 S824 (clone BL-246-7B5, ab243870, Abcam, 1:600 dilution) on a BOND RX autostainer (Leica Biosystems) with enzyme treatment (1:1,000) and BOND Polymer Refine Detection (Leica Biosystems) according to the manufacturer’s protocol. After staining, sections were dehydrated and film-coverslipped using a TissueTek Prisma and Coverslipper (Sakura Fintech). Retrospective ATM IHC was performed by a sponsor-approved central laboratory (anti-ATM clone Y170, ab32420, Abcam, 1:250 dilution). All slides were interpreted by a board-certified pathologist. ATM loss was defined as ≤5% of positive tumor cells.

γ-H2AX = test: as above; settings: 33 paired biopsies, doses >100 mg; P = 0.003, paired Wilcoxon test
Method: as §1

[2] = 3/4 schedule (n = 95), all grades
[3] = 5/2 schedule (n = 25), all grades

With `C[C@@H]1COCCN1c1cc([C@]2(O)C[C@H]3CC[C@@H](C2)O3)c2cnn(-c3cc[nH]n3)c2n1` [camonsertib] the “Patients who discontinued due to treatment-related grade 3 anemia” value ([1]; 1/120, after four cycles) was 0.8%, the “Anemia, all grades” value ([1]; 3/4 schedule) was 64% and the “Anemia, grade 3” value ([1]; 3/4 schedule) was 26%. The “Fatigue TRAE, grade 3” value ([1]; 3/4 schedule (n = 95)) was 2.1%, the “Fatigue TRAE, overall” value ([1]; 3/4 schedule (n = 95)) was 27.4% and the “Neutropenia TRAE, grade 3” value ([1]; 3/4 schedule (n = 95)) was 10.5%. The “Neutropenia TRAE, grade 4” value ([1]; 3/4 schedule (n = 95)) was 3.2%, the “Neutropenia TRAE, overall” value ([1]; 3/4 schedule (n = 95)) was 26.3% and the “Thrombocytopenia TRAE, grade 3” value ([1]; 3/4 schedule (n = 95)) was 6.3%. For the same compound, the “Thrombocytopenia TRAE, grade 4” value ([1]; 3/4 schedule (n = 95)) was 1.1%, the “Thrombocytopenia TRAE, overall” value ([1]; 3/4 schedule (n = 95)) was 23.2% and the “Any TRAE” value [1, 2] was 82 (86.3) n (%). For the same compound, the “TRAE: Anemia” value [1, 2] was 61 (64.2) n (%), the “TRAE: Decreased appetite” value [1, 2] was 14 (14.7) n (%) and the “TRAE: Diarrhea” value [1, 2] was 13 (13.7) n (%). For the same compound, the “TRAE: Dysgeusia” value [1, 2] was 5 (5.3) n (%), the “TRAE: Dyspnea” value [1, 2] was 6 (6.3) n (%) and the “TRAE: Fatigue” value [1, 2] was 26 (27.4) n (%). For the same compound, the “TRAE: Nausea” value [1, 2] was 23 (24.2) n (%), the “TRAE: Neutrophil count decreased/neutropenia” value [1, 2] was 25 (26.3) n (%) and the “TRAE: Platelet count decreased/thrombocytopenia” value [1, 2] was 22 (23.2) n (%). For the same compound, the “TRAE: Vomiting” value [1, 2] was 9 (9.5) n (%), the “TRAE: White blood cell count decreased” value [1, 2] was 11 (11.6) n (%) and the “Any TRAE” value ([1]; 3/4 schedule (n = 95), grade 3) was 30 (31.6) n (%). For the same compound, the “TRAE: Anemia” value ([1]; 3/4 schedule (n = 95), grade 3) was 25 (26.3) n (%), the “TRAE: Decreased appetite” value ([1]; 3/4 schedule (n = 95), grade 3) was 0 n (%) and the “TRAE: Diarrhea” value ([1]; 3/4 schedule (n = 95), grade 3) was 0 n (%). The “TRAE: Dysgeusia” value ([1]; 3/4 schedule (n = 95), grade 3) was 0 n (%), the “TRAE: Dyspnea” value ([1]; 3/4 schedule (n = 95), grade 3) was 0 n (%) and the “TRAE: Fatigue” value ([1]; 3/4 schedule (n = 95), grade 3) was 2 (2.1) n (%). For the same compound, the “TRAE: Nausea” value ([1]; 3/4 schedule (n = 95), grade 3) was 0 n (%), the “TRAE: Neutrophil count decreased/neutropenia” value ([1]; 3/4 schedule (n = 95), grade 3) was 10 (10.5) n (%) and the “TRAE: Platelet count decreased/thrombocytopenia” value ([1]; 3/4 schedule (n = 95), grade 3) was 6 (6.3) n (%). For the same compound, the “TRAE: Vomiting” value ([1]; 3/4 schedule (n = 95), grade 3) was 0 n (%), the “TRAE: White blood cell count decreased” value ([1]; 3/4 schedule (n = 95), grade 3) was 4 (4.2) n (%) and the “Any TRAE” value ([1]; 3/4 schedule (n = 95), grade 4) was 4 (4.2) n (%). The “TRAE: Anemia” value ([1]; 3/4 schedule (n = 95), grade 4) was 0 n (%), the “TRAE: Decreased appetite” value ([1]; 3/4 schedule (n = 95), grade 4) was 0 n (%) and the “TRAE: Diarrhea” value ([1]; 3/4 schedule (n = 95), grade 4) was 0 n (%). For the same compound, the “TRAE: Dysgeusia” value ([1]; 3/4 schedule (n = 95), grade 4) was 0 n (%), the “TRAE: Dyspnea” value ([1]; 3/4 schedule (n = 95), grade 4) was 0 n (%) and the “TRAE: Fatigue” value ([1]; 3/4 schedule (n = 95), grade 4) was 0 n (%). The “TRAE: Nausea” value ([1]; 3/4 schedule (n = 95), grade 4) was 0 n (%), the “TRAE: Neutrophil count decreased/neutropenia” value ([1]; 3/4 schedule (n = 95), grade 4) was 3 (3.2) n (%) and the “TRAE: Platelet count decreased/thrombocytopenia” value ([1]; 3/4 schedule (n = 95), grade 4) was 1 (1.1) n (%). The “TRAE: Vomiting” value ([1]; 3/4 schedule (n = 95), grade 4) was 0 n (%), the “TRAE: White blood cell count decreased” value ([1]; 3/4 schedule (n = 95), grade 4) was 0 n (%) and the “Nausea TRAE, overall” value ([1]; 3/4 schedule (n = 95), all grade <3) was 24.2%. For the same compound, the “Anemia, all grades” value ([1]; 5/2 schedule) was 80%, the “Anemia, grade 3” value ([1]; 5/2 schedule) was 52% and the “Any TRAE” value [1, 3] was 22 (88.0) n (%). The “TRAE: Anemia” value [1, 3] was 20 (80.0) n (%), the “TRAE: Decreased appetite” value [1, 3] was 4 (16.0) n (%) and the “TRAE: Diarrhea” value [1, 3] was 0 n (%). The “TRAE: Dysgeusia” value [1, 3] was 1 (4.0) n (%), the “TRAE: Dyspnea” value [1, 3] was 5 (20.0) n (%) and the “TRAE: Fatigue” value [1, 3] was 7 (28.0) n (%). The “TRAE: Nausea” value [1, 3] was 3 (12.0) n (%), the “TRAE: Neutrophil count decreased/neutropenia” value [1, 3] was 6 (24.0) n (%) and the “TRAE: Platelet count decreased/thrombocytopenia” value [1, 3] was 7 (28.0) n (%). For the same compound, the “TRAE: Vomiting” value [1, 3] was 3 (12.0) n (%), the “TRAE: White blood cell count decreased” value [1, 3] was 1 (4.0) n (%) and the “Any TRAE” value ([1]; 5/2 schedule (n = 25), grade 3) was 14 (56.0) n (%). For the same compound, the “TRAE: Anemia” value ([1]; 5/2 schedule (n = 25), grade 3) was 13 (52.0) n (%), the “TRAE: Decreased appetite” value ([1]; 5/2 schedule (n = 25), grade 3) was 0 n (%) and the “TRAE: Diarrhea” value ([1]; 5/2 schedule (n = 25), grade 3) was 0 n (%). For the same compound, the “TRAE: Dysgeusia” value ([1]; 5/2 schedule (n = 25), grade 3) was 0 n (%), the “TRAE: Dyspnea” value ([1]; 5/2 schedule (n = 25), grade 3) was 0 n (%) and the “TRAE: Fatigue” value ([1]; 5/2 schedule (n = 25), grade 3) was 1 (4.0) n (%). The “TRAE: Nausea” value ([1]; 5/2 schedule (n = 25), grade 3) was 0 n (%), the “TRAE: Neutrophil count decreased/neutropenia” value ([1]; 5/2 schedule (n = 25), grade 3) was 3 (12.0) n (%) and the “TRAE: Platelet count decreased/thrombocytopenia” value ([1]; 5/2 schedule (n = 25), grade 3) was 2 (8.0) n (%). For the same compound, the “TRAE: Vomiting” value ([1]; 5/2 schedule (n = 25), grade 3) was 0 n (%), the “TRAE: White blood cell count decreased” value ([1]; 5/2 schedule (n = 25), grade 3) was 0 n (%) and the “Any TRAE” value ([1]; 5/2 schedule (n = 25), grade 4) was 1 (4.0) n (%). The “TRAE: Anemia” value ([1]; 5/2 schedule (n = 25), grade 4) was 0 n (%), the “TRAE: Decreased appetite” value ([1]; 5/2 schedule (n = 25), grade 4) was 0 n (%) and the “TRAE: Diarrhea” value ([1]; 5/2 schedule (n = 25), grade 4) was 0 n (%). For the same compound, the “TRAE: Dysgeusia” value ([1]; 5/2 schedule (n = 25), grade 4) was 0 n (%), the “TRAE: Dyspnea” value ([1]; 5/2 schedule (n = 25), grade 4) was 0 n (%) and the “TRAE: Fatigue” value ([1]; 5/2 schedule (n = 25), grade 4) was 0 n (%). For the same compound, the “TRAE: Nausea” value ([1]; 5/2 schedule (n = 25), grade 4) was 0 n (%), the “TRAE: Neutrophil count decreased/neutropenia” value ([1]; 5/2 schedule (n = 25), grade 4) was 1 (4.0) n (%) and the “TRAE: Platelet count decreased/thrombocytopenia” value ([1]; 5/2 schedule (n = 25), grade 4) was 1 (4.0) n (%). For the same compound, the “TRAE: Vomiting” value ([1]; 5/2 schedule (n = 25), grade 4) was 0 n (%), the “TRAE: White blood cell count decreased” value ([1]; 5/2 schedule (n = 25), grade 4) was 0 n (%) and the Tolerability ([1]; 120 patients) was “well tolerated”. For the same compound, the “Anemia TRAE of any grade” value ([1]; all dose levels/schedules) was 67.5%, the “Anemia, grade 3 (most common drug-related toxicity)” value ([1]; all patients) was 32% and the “Anemia, grade 4” value ([1]; both schedules) was “no grade 4 anemia was observed”. For the same compound, the “Change in p-KAP1, on-treatment vs pre-treatment biopsy” value (p-KAP1 Ser821) was “statistically significant increases” and the “Change in γ-H2AX, on-treatment vs pre-treatment biopsy” value (γ-H2AX) was “statistically significant increases”.
